Series [1] is described as follows: Dissolution and protein-induced hydrogelation / gel stability. It is filed as physicochemical. Particulars: coassembled hydrogel with OVA, room temperature (20-25 °C). Here is the method:
2.5 mg of compounds were dispersed in endotoxin-free PBS buffer solution (pH = 7.4) at a final concentration of 0.5 wt% with sodium carbonate to adjust the final pH to 7.4. Proteins were dispersed in endotoxin-free PBS buffer solution (pH = 7.4) at a final concentration of 10 μg/μL. The proteins were then evenly dispersed in the hydrogel by vortexing. The mixtures were maintained at 37°C for half hour and hydrogel then formed. The final concentration of the protein in the hydrogel was 500 μg/mL.
We then tested the coassembly property of Comp. 1 with the model protein antigen ovalbumin (OVA). Comp. […] After adding OVA to the solution (final protein concentration = 0.05 wt%), we observed rapid hydrogelation within 10 minutes (Figure 1C). The resulting hydrogel was stable for more than 3 months at room temperature (20-25 °C). The maximum proportion of the nanofibers composed of OVA was 50% for Comp. 1 (Figure S5 and S6).

In the next series the test system is splenocytes. Particulars: 80 µg/mL.
In series [2] the test system is Raw 264.7 mouse macrophages. Particulars: 80 µg/mL.
For a further series, the target named is T1, ovalbumin (OVA) (Gallus gallus, UniProt P01012).
T1 construct: purchased InvivoGen
T1 sequence (P01012 1-386): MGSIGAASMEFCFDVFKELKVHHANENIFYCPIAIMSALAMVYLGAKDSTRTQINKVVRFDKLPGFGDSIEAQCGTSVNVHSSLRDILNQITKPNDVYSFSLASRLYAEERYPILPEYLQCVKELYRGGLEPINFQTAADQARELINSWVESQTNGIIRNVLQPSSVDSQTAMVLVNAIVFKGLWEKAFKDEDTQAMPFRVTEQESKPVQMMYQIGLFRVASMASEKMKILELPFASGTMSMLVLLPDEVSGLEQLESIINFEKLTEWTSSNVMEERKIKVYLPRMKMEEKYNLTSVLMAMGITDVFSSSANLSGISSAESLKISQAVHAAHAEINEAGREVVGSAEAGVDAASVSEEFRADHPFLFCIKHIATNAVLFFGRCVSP
Kind of series: Microscale thermophoresis (MST) binding to OVA. The settings on record: Monolith NT.115, NT-647-labelled protein, PBS with 0.05% Tween-20, pH 7.4, Comp. 0.25 μM to 10 mM. From the text:
For the interaction experiments of fluorescent-proteins with Comp. […] 1 or 2 at 1:1 volume ratio.

The nature of series [3]: Antigen release assay (OVA release from hydrogel). It is filed as physicochemical. Particulars: physically encapsulated OVA, 0.2 wt% gel, 150 μL, 30 μg OVA-RBITC, PBS pH 7.4, 37 °C, absorbance 560 nm. Here is the method: The released profiles of OVA-RBITC from Vac-1 and Vac-2 in vitro were studied at 37 °C. 150 μL of Vac-1 or Vac-2 (0.2 wt%) containing 30 μg of OVA-RBITC was used for the measurement. 150 μL PBS solution (pH = 7.4) was firstly added on top of the gel, 100 μL of solution was taken out at the desired time point and 100 μL of fresh PBS solutions was added back. The absorbance of OVA-RBITC was determined at 560 nm by a microplate reader (BioTek Synergy 4) to calculate the cumulative release rate of OVA-RBITC from hydrogel vaccines.

2 compounds from article PMC6929975, “A supramolecular protein chaperone for vaccine delivery” (Theranostics, 2020) can be followed below.

Starred links: 1 amine or outer side, 2 acyl side, 3 side chain; linkers in the order of their positions; H or OH if unused. Non-standard residues stand in square brackets, D forms with d. Residues, ends and D or L forms follow the SMILES beside them. Groups on a side chain read outwards from the residue. *: point of attachment. γGlu = O=C(O)[C@H](CCC(=O)[*:2])N[*:1]; X1 = CC(C(=O)*)c1ccc(-c2ccccc2)c(F)c1

Take `CC(C(=O)NCC(=O)N[C@H](Cc1ccccc1)C(=O)N[C@H](Cc1ccccc1)C(=O)N[C@H](Cc1ccc(O)cc1)C(=O)N[C@H](CCCCNC(=O)CC[C@H](NC(=O)CC[C@H](N)C(=O)O)C(=O)O)C(N)=O)c1ccc(-c2ccccc2)c(F)c1` (some centres unmarked) [Comp. 1, Fbp-G^DF^DF^DY^DK(γE)2-NH2] (X1-G[dF][dF][dY][dK]([γGlu-γGlu])-NH2): in series [1], the “stability of the resulting hydrogel” value is “more than 3 months”. Further, the “cell viability, splenocytes” value in the series with splenocytes was “did not remarkably reduce the cell viability”. Moreover, the “cell viability, Raw 264.7” value in series [2] is “did not remarkably reduce the cell viability”.
With Fbp-G^DF^DF^DY [Comp. 2], at ovalbumin (OVA), the “binding affinity for OVA, in words” value was “no measurable binding affinity”. Besides, the “cumulative OVA release within 16 hours” value in series [3] was around 100%.
